{"source": "patent US7579432B2", "about": "“Cyclic peptides as G-protein-coupled receptor antagonists” (Promics Pty Limited, priority 2001, dated 2009)", "system": "lower limb ischemia-reperfusion (I/R)", "assay": "Bilateral hindlimb ischemia-reperfusion injury in rats", "procedure": "Rats were subjected to 2 hours bilateral hindlimb ischemia and 4 hours reperfusion. […] (1 mg/kg) i.v., either 10 min before ischemia or 10 min prior to reperfusion, or orally (10 mg/kg) 30 min prior to ischemia. Levels of circulating creatine kinase (CK), lactate dehydrogenase (LDH), alanine and aspartate aminotransferase (ALT/AST), creatinine, blood urea nitrogen (BUN), polymorphonuclear leukocytes (PMNs) and calcium (Ca^++) and potassium (K^+) ions were determined. These biochemical indices are known to reflect tissue or organ injury following I/R events. Other parameters measured included urinary protein levels, muscle edema and myeloperoxidase (MPO) concentrations in the lung, liver and muscle along with liver homogenate TNF-α concentrations.\nThe study was performed in accordance with guidelines from the National Health & Medical Research Council of Australia, and the experimental protocol approved by the University of Queensland Animal Ethics Committee. Female Wistar rats weighing 250-300 g were fasted overnight before being anaesthetized with the i.p. injection of 6 mg/kg xylazine and 120 mg/kg ketamine. Anesthesia was maintained throughout the study by additional injections of ketamine. […] Bilateral hindlimb ischemia was then induced through the application of latex o-rings (marking rings; Hayes Veterinary Supplies, Brisbane, Australia) above the greater trochanter of each hind limb. Following 2 hours of ischemia, the latex rings were cut and removed and limbs allowed to reperfuse for 4 hours. Six experimental groups were used: • (a) sham-operated, • (b) ischemia-only, • (c) I/R-only, • (d) I/R+C5a antagonist (1 mg/kg, i.v.) administered 10 min prior to ischemia, • (e) I/R+C5a antagonist (10 mg/kg, p.o.) administered 30 min prior to ischemia, and • (f) I/R+C5a antagonist (1 mg/kg, i.v.) administered 10 min prior to reperfusion.\nAll other groups underwent 2 hours of ischemia and 4 hours of reperfusion. Sham-operated, ischemia-only and I/R groups were infused with 7% ethanol/saline 10 min prior to ischemia, instead of drug. Blood was collected throughout the study from the tail vein, and serum or plasma was stored at either 4° C. or −20° C. for later biochemical assays. Urine was collected over the last hour of the study for the determination of urinary protein levels. At the completion of the experiment, rats were euthanased, and sections of the lungs, liver and gastrocnemius muscle removed and weighed for edema, neutrophil accumulation and liver TNF-α studies.\nAll experimental results are expressed as means±standard error of the mean (SEM). Data analysis was performed using GraphPad Prism 3.0 software (GraphPad Software, Inc. USA). Statistical comparisons were made to sham-operated and I/R-only groups, using a one-way analysis of variance followed by a Dunnett comparison post-test analysis. Statistical significance was assessed at P<0.05.\nCirculating levels of creatine kinase (CK) were measured in serum samples taken immediately after ischemia, following 1, 2 and 3 hours reperfusion, and at the completion of the study using a […] kit (Sigma, St. Louis, USA) according to the manufacturer's instructions. Serum was also taken 10 min after tourniquet release for CK measurement in I/R-only animals. A 1:5 dilution was used for samples taken after 2 hours reperfusion.", "key": {"[1]": {"details": "I/R + 1 mg/kg i.v. pre-ischemia, 4 hours reperfusion"}, "[2]": {"details": "I/R + 1 mg/kg i.v. pre-reperfusion, 4 hours reperfusion"}, "[3]": {"details": "I/R + 10 mg/kg p.o. pre-ischemia, 4 hours reperfusion"}, "[4]": {"details": "i.v. 1 mg/kg just prior to reperfusion"}, "[5]": {"details": "prior to ischemia, i.v. 1 mg/kg or orally 10 mg/kg"}}}
{"smiles": "CC(=O)N[C@@H](Cc1ccccc1)C(=O)N[C@H]1CCCNC(=O)[C@H](CCCNC(=N)N)NC(=O)[C@H](Cc2c[nH]c3ccccc23)NC(=O)[C@@H](CC2CCCCC2)NC(=O)[C@@H]2CCCN2C1=O", "note": "[Compound 1, Ac-Phe-[Orn-Pro-dCha-Trp-Arg]]", "values": [{"measurement": "Plasma Creatinine", "setting": "[1]", "value": "1.07 ± 0.07", "unit": "mg/dL"}, {"measurement": "Proteinuria", "setting": "[1]", "value": "36.4 ± 11.4", "unit": "mg/dL"}, {"measurement": "Serum BUN", "setting": "[1]", "value": "23.6 ± 1.6", "unit": "mg/dL"}, {"measurement": "Serum Ca++", "setting": "[1]", "value": "2.46 ± 0.04", "unit": "mmol/L"}, {"measurement": "Serum K+", "setting": "[1]", "value": "6.13 ± 0.18", "unit": "mmol/L"}, {"measurement": "Plasma Creatinine", "setting": "[2]", "value": "1.22 ± 0.05", "unit": "mg/dL"}, {"measurement": "Proteinuria", "setting": "[2]", "value": "41.2 ± 11.4", "unit": "mg/dL"}, {"measurement": "Serum BUN", "setting": "[2]", "value": "22.0 ± 2.2", "unit": "mg/dL"}, {"measurement": "Serum Ca++", "setting": "[2]", "value": "2.45 ± 0.10", "unit": "mmol/L"}, {"measurement": "Serum K+", "setting": "[2]", "value": "5.02 ± 0.32", "unit": "mmol/L"}, {"measurement": "Plasma Creatinine", "setting": "[3]", "value": "1.14 ± 0.14", "unit": "mg/dL"}, {"measurement": "Proteinuria", "setting": "[3]", "value": "45.8 ± 9.8", "unit": "mg/dL"}, {"measurement": "Serum BUN", "setting": "[3]", "value": "21.8 ± 2.1", "unit": "mg/dL"}, {"measurement": "Serum Ca++", "setting": "[3]", "value": "2.49 ± 0.04", "unit": "mmol/L"}, {"measurement": "Serum K+", "setting": "[3]", "value": "5.57 ± 0.58", "unit": "mmol/L"}, {"measurement": "MPO activity in hindlimb muscles, lungs and liver vs I/R-only rats", "setting": "all 3 drug-treated groups", "value": "significant decreases"}, {"measurement": "circulating PMN numbers vs I/R-only rats", "setting": "all 3 drug-treated groups, 4 hours reperfusion", "value": "significantly decreased"}, {"measurement": "adverse effects of the drug alone (changes in injury markers vs sham-operated animals)", "setting": "drug alone", "value": "no adverse effects"}, {"measurement": "circulating creatine kinase (CK) levels vs I/R-only rats", "setting": "[4]", "value": "significant inhibition"}, {"measurement": "circulating lactate dehydrogenase (LDH) levels vs I/R-only rats", "setting": "[4]", "value": "significant inhibition"}, {"measurement": "circulating creatine kinase (CK) levels vs I/R-only rats", "setting": "[5]", "value": "significantly decreased levels"}, {"measurement": "circulating lactate dehydrogenase (LDH) levels vs I/R-only rats", "setting": "[5]", "value": "significantly decreased levels"}]}
